# Read-outs that look alike come from different tables or passages of the source.
# Assays:
# [1] = tested on: K1 strain of P. falciparum (chloroquine resistant); assay: In vitro antimalarial activity, 48-h [3H]-hypoxanthine incorporation assay, K1 strain; type: cell-based, Plasmodium falciparum
# Procedure: Antimalarial activity. Two strains of P. falciparum were used in this study: (a) The K1 strain which is known to be CQ resistant and (b) the HB3 strain which is sensitive to all antimalarials. Parasites were maintained in continuous culture using the method of Jensen and Trager. (J. Parasitol., 1977, 63, 883-886) Cultures were grown in flasks containing human erythrocytes (2-5%) with parasitemia in the range of 1% to 10% suspended in RPMI 1640 medium supplemented with 25 mM HEPES and 32 mM NaHCO3, and 10% human serum (complete medium). Cultures were gassed with a mixture of 3% O2, 4% CO2 and 93% N2. Antimalarial activity was assessed with an adaption of the 48-h sensitivity assay of Desjardins et al. (Antimicrob. Agents. Chemother., 1979, 16, 710-718.) using [^3H]-hypoxanthine incorporation as an assessment of parasite growth. Stock drug solutions were prepared in 100% dimethylsulphoxide (DMSO) and diluted to the appropriate concentration using complete medium. Assays were performed in sterile 96-well microtitre plates, each plate contained 200—1 of parasite culture (2% parasitemia, 0.5% haematocrit) with or without 10—1 drug dilutions. Each drug was tested in triplicate and parasite growth compared to control wells (which consituted 100% parasite growth). After 24-h incubation at 37° C., 0.5_Ci hypoxanthine was added to each well. Cultures were incubated for a further 24 h before they were harvested onto filter-mats, dried for 1 h at 55° C. and counted using a Wallac 1450 Microbeta Trilux Liquid scintillation and luminescence counter. IC50 values were calculated by interpolation of the probit transformation of the log dose—response curve. In Vivo Testing Protocol Male, random Swiss albino mice weighing 18-22 g were inoculated intraperitoneally with 10^7 parasitised erythrocytes with P. yoelii NS strain. Animals were then dosed daily via two routes (intraparential or oral) for four consecutative days beginning on the day of infection. Compounds were dissolved or suspended in the vechile solution consisting of methanol, phosphate buffered saline and DMSO (2:5:3 v/v).
# [2] = tested on: HB3 strain of P. falciparum (chloroquine sensitive); assay: In vitro antimalarial activity, 48-h [3H]-hypoxanthine incorporation assay, HB3 strain; type: cell-based; conditions: Plasmodium falciparum; chloroquine sensitive HB3 isolate, n=4
# Procedure: (§1) Antimalarial activity. Two strains of P. falciparum were used in this study: (a) The K1 strain which is known to be CQ resistant and (b) the HB3 strain which is sensitive to all antimalarials. Parasites were maintained in continuous culture using the method of Jensen and Trager. (J. Parasitol., 1977, 63, 883-886) Cultures were grown in flasks containing human erythrocytes (2-5%) with parasitemia in the range of 1% to 10% suspended in RPMI 1640 medium supplemented with 25 mM HEPES and 32 mM NaHCO3, and 10% human serum (complete medium). Cultures were gassed with a mixture of 3% O2, 4% CO2 and 93% N2. Antimalarial activity was assessed with an adaption of the 48-h sensitivity assay of Desjardins et al. (Antimicrob. Agents. Chemother., 1979, 16, 710-718.) using [^3H]-hypoxanthine incorporation as an assessment of parasite growth. Stock drug solutions were prepared in 100% dimethylsulphoxide (DMSO) and diluted to the appropriate concentration using complete medium. […] Cultures were incubated for a further 24 h before they were harvested onto filter-mats, dried for 1 h at 55° C. and counted using a Wallac 1450 Microbeta Trilux Liquid scintillation and luminescence counter. IC50 values were calculated by interpolation of the probit transformation of the log dose—response curve. […]
# P. yoelii NS strain = assay: In vivo 4-day test, P. yoelii NS rodent malaria model; set-up: species or system P. yoelii (Swiss albino mice); conditions: oral administration, standard 4-day test, repeated twice
# Procedure: as §1
# [3] = Biliary and urinary excretion and tissue distribution of radioactivity 5 h after i.v. [3H]AQ or [3H]ISQ; type: in vivo, Male Wistar rats; conditions: for % of dose accounted for (bile, tissues, plasma, urine): total recovery
# Excerpt: Investigation of Biliary and Urinary Excretion of [^3H] AQ and [^3H] ISQ After Administration to Male Wistar Rats. […] The rats were carefully monitored throughout the procedure to ensure that anaesthesia was maintained. A small incision was made in the throat and the trachea was located, via blunt dissection of the surrounding connective tissue. A 1.57 mm (I.D.) polythene tube cannula was inserted and securely fastened. […] A syringe containing saline was attached to the jugular cannula to act as a seal preventing air bubbles from entering the vein. An incision was made along the midline of the abdomen. The common bile duct was located and allowed to dilate before a 0.58 mm (I.D.) cannula was inserted. Control bile was obtained. The penis was ligated, to allow urine to be collected during the experiment. […] DMSO replaced the saline in the jugular cannula to prevent the drug precipitating out of solution during dosing. A 500 μl Hamilton syringe was filled with either [^3H]AQ or [^3H]ISQ (54 μmol/kg, 25 μCi/kg) and connected to the cannula. The radiolabelled compounds were infused via the jugular vein over a period of 30 mins to prevent respiratory depression caused by DMSO. Bile fractions were collected at hourly intervals for 5 h from the start of dosing, All samples were weighed and there weight recorded. After 5 h any remaining urine was aspirated from the bladder and blood was collected via cardiac puncture with a heparinised needle into a heparinised tube. […] Tissues (brain, heart, kidney, liver, lung, spleen and skin) were removed from the animal, rinsed in saline before being placed in vials and weighed. All samples were stored at −80° C. until they were required for analysis. […] Samples were left in darkness overnight to prevent chemiluminescence. Radioactivity was then determined using a Packard 1500 Liquid Scintillation Analyser. Portions of each tissue (50-100 mg) and aliquots of red blood cells (50-60 mg) were taken in duplicate; tissue solubilizer (0.5 ml) was added to each sample and left overnight at 50° C. The samples were cooled to room temperature before being decolourised with hydrogen peroxide (200 μl) and left for 1 h. The mixture was then neutralised with glacial acetic acid (30 μl) and 12 ml of scintillation fluid was added. The mixture was mixed thoroughly and left overnight in the dark. The samples were assayed for radioactivity. (all volumes of chemicals to be added were doubled for solubulizing the red blood cells)
# [4] = 24 hour metabolism study, distribution of radioactivity; type: in vivo, Male Wistar rats
# Procedure: [^3H]AQ (54 μmol/kg) was administered i.p to male Wistar rats (200-300 g). Each animal was placed in a wire-bottom metabolism cage with access to food and water. Urine was collected over 24 h, the cage was rinsed with distilled water (10 ml) at the end of the collection period. […] All samples were stored at −80° C. until analysed. Previous ISQ data was obtained for comparison with AQ. […] Samples were left in darkness overnight to prevent chemiluminescence. Radioactivity was then determined using a Packard 1500 Liquid Scintillation Analyser. Portions of each tissue (50-100 mg) and aliquots of red blood cells (50-60 mg) were taken in duplicate; tissue solubilizer (0.5 ml) was added to each sample and left overnight at 50° C. The samples were cooled to room temperature before being decolourised with hydrogen peroxide (200 μl) and left for 1 h. The mixture was then neutralised with glacial acetic acid (30 μl) and 12 ml of scintillation fluid was added. The mixture was mixed thoroughly and left overnight in the dark. The samples were assayed for radioactivity. (all volumes of chemicals to be added were doubled for solubulizing the red blood cells)
# [5] = Radioactivity in plasma and red blood cells during 5 h after dosing; type: in vivo, Male Wistar rats; conditions: for average plasma level, % of the dose: throughout the 5 h experiment
# Procedure: The animal was anaesthetised and the jugular vein cannulated as described above. To allow blood samples to be taken regularly, the carotid artery was cannulated with 0.58 mm I.D. polythene tubing. The cannula was attached to a heparinised saline syringe to prevent blood escaping from the cannula and to prevent air bubbles from entering the blood stream. The animals were dosed as described above and the clock was started at the end of the dosing period. Blood samples (300 μl) were collected at 15 mins, 30 mins and hourly post-dosing. Heparinised saline was flushed through the cannula after every blood collection to prevent clotting within the tubing. The saline was allowed to drain out of the cannula prior to every collection point. After the fifth hour sample had been collected, all remaining blood within the rat was allowed to drain from the cannula into a heparinised tube. All samples were […] (4000 rpm for 5 min) immediately after collection and the pellet and supernatant were separated. The volume of the plasma was recorded. The tissues were also removed and weighed all samples were stored at -80° C. until analysed. The active components of the plasma were removed via extraction with ether for LC/MS analysis. […] Samples were left in darkness overnight to prevent chemiluminescence. Radioactivity was then determined using a Packard 1500 Liquid Scintillation Analyser. Portions of each tissue (50-100 mg) and aliquots of red blood cells (50-60 mg) were taken in duplicate; tissue solubilizer (0.5 ml) was added to each sample and left overnight at 50° C. The samples were cooled to room temperature before being decolourised with hydrogen peroxide (200 μl) and left for 1 h. The mixture was then neutralised with glacial acetic acid (30 μl) and 12 ml of scintillation fluid was added. The mixture was mixed thoroughly and left overnight in the dark. The samples were assayed for radioactivity. (all volumes of chemicals to be added were doubled for solubulizing the red blood cells)
# [6] = LC/MS and radiochromatographic analysis of urinary, biliary and plasma metabolites; type: in vivo, Male Wistar rats; conditions: for biliary metabolite identified (main) / glutathione (GSH) conjugates or metabolites found: rat bile; for biliary metabolite identified (main): i.v.; for glutathione (GSH) conjugates or metabolites found: urine or blood; for main compound or metabolite in plasma: rat plasma ether extracts
# Procedure: After the fifth hour sample had been collected, all remaining blood within the rat was allowed to drain from the cannula into a heparinised tube. All samples were centrifiged (4000 rpm for 5 min) immediately after collection and the pellet and supernatant were separated. The volume of the plasma was recorded. The tissues were also removed and weighed all samples were stored at −80° C. until analysed. The active components of the plasma were removed via extraction with ether for LC/MS analysis.
# Analysis of Urinary, Binary and Plasma Metabolites of Male Wistar Rats Dosed with [3H]AQ or [^3H]ISQ.
# Our samples were analysed using MassLynx software. Aliquots (50-100 μl) of bile, urine and plasma ether extracts, were eluted from a Zorbax SB-18 column with a slow acetonitrile gradient (10-50% over 30 mins) in ammonium acetate (5.0 mM, pH3.8) at 0.9 ml/min. Two Jasco PU-980 pumps were linked to a mixing module, allowing effluent to mix with scintillation fluid prior to reaching the Flo-One A250 _eta radioactive flow detector or allowing the effluent to be delivered to the Quattro II mass spectrometer. Nebulising and drying gas were delivered at a rate of 13 L/h and 300 L/h respectively. The temperature of the LC/MS interface was 70° C. and the capillary voltage was […]. The extent of fragmentation was modulated via altering the cone voltage.
# P. bergheri = assay: In vivo activity in the mouse model against P. bergheri; conditions: in words
# [7] = Table 2, chloroquine resistant K1 Plasmodium falciparum, read-out: IC50
# [8] = Plasmodium falciparum, chloroquine resistant K1 isolate, n=4, read-out: IC50
# [9] = 5 h after i.v. 54 μmol/kg, mean±s.e.m.
# [10] = male, Wistar, rat, in vivo, iv, 5 h
# [11] = male, Wistar, rat, in vivo, 24 h
compound,measurement,setting,value
CCNCc1ccc(Nc2ccnc3c2=CCC(Cl)C=3)cc1O (stereo not drawn) [ISQ1],IC50,[1]; [7],16.5 nM
CC(C)NCc1ccc(Nc2ccnc3c2=CCC(Cl)C=3)cc1O (stereo not drawn) [ISQ5],IC50,[1]; [7],22.7 nM
CN(C)Cc1ccc(Nc2ccnc3c2=CCC(Cl)C=3)cc1O (stereo not drawn) [ISQ2],IC50,[1]; [7],25.2 nM
"CCN(CC)Cc1cc(Nc2ccnc3cc(Cl)ccc23)ccc1O [amodiaquine, reference compound]",IC50,[2],18 nM
same,IC50,[1]; [8],25 nM
same,ED50,"P. yoelii NS strain; Plasmodium yoelii, in Mus musculus, po, 96 h, read-out: ED50",7.9 mg/kg
same,ED50,P. yoelii NS strain,7.4 mg/kg
same,% of dose recovered in skin,[3]; [9],22.12%
same,"% of dose accounted for (bile, tissues, plasma, urine)",[3]; after 5 h,78.56%
same,% of dose remaining in heart,[3]; [10],0.34%
same,% of dose remaining in liver,[3]; [10],20.82%
same,% of dose remaining in plasma,[3]; [10],0.04%
same,% of dose removed from liver,"[4]; male, Wistar, rat, in vivo",13.97%
same,% of dose remaining in liver,[4]; [11],6.85%
same,% of dose remaining in plasma,[4]; [11],0.02%
same,% of dose remaining in skin,[4]; [11],7.18%
same,% of dose in red blood cells after 5 h,[5]; after 5 h,0.09%
same,"% of dose in red blood cells, initially",[5]; start of 5 h period,0.12%
same,"average plasma level, % of the dose",[5],approximately 0.034%
same,biliary metabolite identified (main),[6]; LC/MS,a glutathione conjugate of AQ
same,glutathione (GSH) conjugates or metabolites found,[6]; LC/MS,glutathione metabolites were observed
same,main compound or metabolite in plasma,[6]; LC/MS,desethylAQ
"CCN(CC)Cc1ccc(Nc2ccnc3cc(Cl)ccc23)cc1O [Isoquine, 4-N-(3′-hydroxy-4′-[N,N-diethylaminomethyl])anilino-7-chloroquinoline]",IC50,[2],9 nM
same,IC50,[1]; [8],6 nM
same,IC50,[1]; [7],15.7 nM
same,% of dose excreted into bile,[3]; [9],12.73%
same,% of dose recovered in skin,[3]; [9],21.46%
same,% of dose remaining in heart,[3]; [9],0.58%
same,% of dose remaining in liver,[3]; [9],32.93%
same,% of dose remaining in plasma,[3]; [9],0.13%
same,increase in liver accumulation compared with AQ,[3]; after 5 h,approximately 10%
same,% of dose in tissues,"[3]; after 5 h, all tissues",70.92%
same,"% of dose accounted for (bile, tissues, plasma, urine)",[3]; after 5 h,87.17%
same,% of dose excreted into urine,"[3]; over 5 h after i.v. 54 μmol/kg, mean±s.e.m.",3.39%
same,% of dose remaining in liver,[4]; after 24 h,5.48%
same,% of dose remaining in skin,[4]; after 24 h,5.6%
same,% of dose remaining in the tissues,"[4]; after 24 h, 54 μmol/kg",13.87%
same,% of dose in remaining tissues,"[4]; after 24 h, tissues other than liver and skin",2.97%
same,% of dose removed from liver,[4]; difference between 5 h and 24 h,27.45%
same,plasma levels relative to AQ,[5]; over 5 h,3 fold
same,"average plasma level, % of the dose",[5],0.095%
same,"% of dose in red blood cells, constant level",[5]; throughout the experiment,0.12%
same,formation of toxic or reactive metabolites,"[6]; in vivo, in words",does not form toxic metabolites
same,biliary metabolite identified (main),[6]; LC/MS,isoquine aldehyde glucuronide metabolite
same,glutathione (GSH) conjugates or metabolites found,[6]; LC/MS,complete lack of glutathione metabolites
same,main compound or metabolite in plasma,[6]; LC/MS,parent compound
same,main compound excreted in urine,"[6]; rat urine, LC/MS",parent compound isoquine
same,in vivo activity against P. bergheri,P. bergheri,superior in vivo activity
"CCN(CC)CCCC(C)Nc1ccnc2cc(Cl)ccc12 (stereo not drawn) [Chloroquine, chloroquine, reference compound]",IC50,"[1]; Plasmodium falciparum, K1, read-out: IC50 nM",190 to 250 nM
CCCN(CCC)Cc1ccc(Nc2ccnc3c2=CCC(Cl)C=3)cc1O (stereo not drawn) [ISQ3],IC50,[1]; [7],23.8 nM
CCCCN(CCCC)Cc1ccc(Nc2ccnc3c2=CCC(Cl)C=3)cc1O (stereo not drawn) [ISQ4],IC50,[1]; [7],14.9 nM

# Reference: patent US7132431B2, “Anti-malarial compounds” (The University of Liverpool, priority 2001, dated 2006)
